According to the supplement of paper PMC10307832:

Experiments:
Test in all cases: relative viability (nuclei count vs DMSO), 5 days (fraction); higher = more cells survive
NCI-H1563 = test system: NCI-H1563
How it was run: (§1)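 Lung cancer cell lines were pin-tool dosed in 1536-well plates on the day after seeding, with either a lone drug or a fixed anchor-drug dose plus five library-drug doses (not always all listed) in √10 steps. Nuclei were counted on 4× images after 5 days. Relative viability is the ratio of treated-well to vehicle-well nuclei counts, with each value a median of duplicate plates.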

NCI-H1299 = test system: NCI-H1299
How it was run: as §1

A549 = test system: A549
How it was run: as §1

Calu-6 = test system: Calu-6
How it was run: as §1

NCI-H1703 = test system: NCI-H1703
How it was run: as §1

EBC-1 = test system: EBC-1
How it was run: as §1

IA-LM = test system: IA-LM
How it was run: as §1

Cc1cnc(-c2cnc(NCCNc3ccc(C#N)cn3)nc2-c2ccc(Cl)cc2Cl)[nH]1 + C[C@@H](Oc1cc(-c2cnn(C3CCNCC3)c2)cnc1N)c1c(Cl)ccc(F)c1Cl [Crizotinib] (partner 1 µM)
relative viability (NCI-H1563; first compound 0.08 µM): 0.92 | relative viability (NCI-H1563; first compound 0.253 µM): 0.891 | relative viability (NCI-H1563; first compound 0.8 µM): 0.767 | relative viability (NCI-H1563; first compound 2.53 µM): 0.903 | relative viability (NCI-H1299; first compound 0.08 µM): 0.963 | relative viability (NCI-H1299; first compound 0.253 µM): 0.952 | relative viability (NCI-H1299; first compound 0.8 µM): 0.989 | relative viability (NCI-H1299; first compound 2.53 µM): 0.845 | relative viability (A549; first compound 0.08 µM): 0.784 | relative viability (A549; first compound 0.253 µM): 0.692 | relative viability (A549; first compound 0.8 µM): 0.964 | relative viability (A549; first compound 2.53 µM): 0.803 | relative viability (Calu-6; first compound 0.08 µM): 0.862 | relative viability (Calu-6; first compound 0.253 µM): 0.752 | relative viability (Calu-6; first compound 0.8 µM): 0.81 | relative viability (Calu-6; first compound 2.53 µM): 0.513 | relative viability (NCI-H1703; first compound 0.08 µM): 0.93 | relative viability (NCI-H1703; first compound 0.253 µM): 0.622 | relative viability (NCI-H1703; first compound 0.8 µM): 0.861 | relative viability (NCI-H1703; first compound 2.53 µM): 0.73 | relative viability (EBC-1; first compound 0.08 µM): 0.191 | relative viability (EBC-1; first compound 0.253 µM): 0.217 | relative viability (EBC-1; first compound 0.8 µM): 0.191 | relative viability (EBC-1; first compound 2.53 µM): 0.19 | relative viability (IA-LM; first compound 0.08 µM): 0.835 | relative viability (IA-LM; first compound 0.253 µM): 0.817 | relative viability (IA-LM; first compound 0.8 µM): 0.903 | relative viability (IA-LM; first compound 2.53 µM): 0.803

Cc1cnc(-c2cnc(NCCNc3ccc(C#N)cn3)nc2-c2ccc(Cl)cc2Cl)[nH]1 + C[C@]1(O)C[C@@H](c2nc(-c3ccc4ccc(-c5ccccc5)nc4c3)c3c(N)nccn32)C1 [Linsitinib] (partner 1 µM)
relative viability (NCI-H1563; first compound 0.08 µM): 1.33 | relative viability (NCI-H1563; first compound 0.253 µM): 1.2 | relative viability (NCI-H1563; first compound 0.8 µM): 1.22 | relative viability (NCI-H1563; first compound 2.53 µM): 1.1 | relative viability (NCI-H1299; first compound 0.08 µM): 0.882 | relative viability (NCI-H1299; first compound 0.253 µM): 0.967 | relative viability (NCI-H1299; first compound 0.8 µM): 0.503 | relative viability (NCI-H1299; first compound 2.53 µM): 0.861 | relative viability (A549; first compound 0.08 µM): 0.719 | relative viability (A549; first compound 0.253 µM): 0.477 | relative viability (A549; first compound 0.8 µM): 0.468 | relative viability (A549; first compound 2.53 µM): 0.548 | relative viability (Calu-6; first compound 0.08 µM): 1.01 | relative viability (Calu-6; first compound 0.253 µM): 0.888 | relative viability (Calu-6; first compound 2.53 µM): 0.971 | relative viability (NCI-H1703; first compound 0.08 µM): 0.986 | relative viability (NCI-H1703; first compound 0.253 µM): 0.631 | relative viability (NCI-H1703; first compound 0.8 µM): 0.884 | relative viability (NCI-H1703; first compound 2.53 µM): 1.21 | relative viability (EBC-1; first compound 0.08 µM): 0.913 | relative viability (EBC-1; first compound 0.253 µM): 0.713 | relative viability (EBC-1; first compound 0.8 µM): 0.859 | relative viability (EBC-1; first compound 2.53 µM): 0.819 | relative viability (IA-LM; first compound 0.08 µM): 0.604 | relative viability (IA-LM; first compound 0.253 µM): 0.257 | relative viability (IA-LM; first compound 0.8 µM): 0.744 | relative viability (IA-LM; first compound 2.53 µM): 0.542

Cc1cnc(-c2cnc(NCCNc3ccc(C#N)cn3)nc2-c2ccc(Cl)cc2Cl)[nH]1 + Cc1nc(NC(=O)N2CCC[C@H]2C(N)=O)sc1-c1ccnc(C(C)(C)C(F)(F)F)c1 [Alpelisib] (partner 2 µM)
relative viability (NCI-H1563; first compound 0.08 µM): 1.02 | relative viability (NCI-H1563; first compound 0.253 µM): 0.9 | relative viability (NCI-H1563; first compound 0.8 µM): 0.946 | relative viability (NCI-H1563; first compound 2.53 µM): 0.913 | relative viability (NCI-H1299; first compound 0.08 µM): 1.01 | relative viability (NCI-H1299; first compound 0.253 µM): 0.992 | relative viability (NCI-H1299; first compound 0.8 µM): 1.1 | relative viability (NCI-H1299; first compound 2.53 µM): 0.996 | relative viability (A549; first compound 0.08 µM): 0.853 | relative viability (A549; first compound 0.253 µM): 0.753 | relative viability (A549; first compound 0.8 µM): 0.818 | relative viability (A549; first compound 2.53 µM): 0.94 | relative viability (Calu-6; first compound 0.08 µM): 0.946 | relative viability (Calu-6; first compound 0.253 µM): 0.924 | relative viability (Calu-6; first compound 0.8 µM): 0.934 | relative viability (Calu-6; first compound 2.53 µM): 0.822 | relative viability (NCI-H1703; first compound 0.08 µM): 0.329 | relative viability (NCI-H1703; first compound 0.253 µM): 0.312 | relative viability (NCI-H1703; first compound 0.8 µM): 0.37 | relative viability (NCI-H1703; first compound 2.53 µM): 0.535 | relative viability (EBC-1; first compound 0.08 µM): 0.796 | relative viability (EBC-1; first compound 0.253 µM): 0.782 | relative viability (EBC-1; first compound 0.8 µM): 0.78 | relative viability (EBC-1; first compound 2.53 µM): 0.812 | relative viability (IA-LM; first compound 0.08 µM): 0.837 | relative viability (IA-LM; first compound 0.253 µM): 0.77 | relative viability (IA-LM; first compound 0.8 µM): 0.86 | relative viability (IA-LM; first compound 2.53 µM): 0.826

O=C(O)CCCCC(CCSCc1ccccc1)SCc1ccccc1 (stereo not drawn) [CPI-613] + CC1(C)CCC(c2ccc(Cl)cc2)=C(CN2CCN(c3ccc(C(=O)NS(=O)(=O)c4ccc(N[C@H](CCN5CCOCC5)CSc5ccccc5)c(S(=O)(=O)C(F)(F)F)c4)cc3)CC2)C1 [Navitoclax] (partner 0.5 µM)
relative viability (NCI-H1299; first compound 5 µM): 1.05 | relative viability (NCI-H1299; first compound 15.81 µM): 1.05 | relative viability (NCI-H1299; first compound 50 µM): 1.06 | relative viability (NCI-H1299; first compound 158.11 µM): 1.01 | relative viability (NCI-H1299; first compound 500 µM): 1.04 | relative viability (A549; first compound 5 µM): 1.11 | relative viability (A549; first compound 15.81 µM): 0.977 | relative viability (A549; first compound 50 µM): 1.09 | relative viability (A549; first compound 158.11 µM): 0.308 | relative viability (A549; first compound 500 µM): 0.0559 | relative viability (Calu-6; first compound 5 µM): 0.72 | relative viability (Calu-6; first compound 15.81 µM): 0.744 | relative viability (Calu-6; first compound 50 µM): 0.595 | relative viability (Calu-6; first compound 158.11 µM): 0.107 | relative viability (Calu-6; first compound 500 µM): 0.0529 | relative viability (NCI-H1703; first compound 5 µM): 1.01 | relative viability (NCI-H1703; first compound 15.81 µM): 0.967 | relative viability (NCI-H1703; first compound 50 µM): 0.829 | relative viability (NCI-H1703; first compound 158.11 µM): 0.144 | relative viability (NCI-H1703; first compound 500 µM): 0.0899 | relative viability (EBC-1; first compound 5 µM): 0.373 | relative viability (EBC-1; first compound 15.81 µM): 0.404 | relative viability (EBC-1; first compound 50 µM): 0.397 | relative viability (EBC-1; first compound 158.11 µM): 0.0793 | relative viability (EBC-1; first compound 500 µM): 0.0379 | relative viability (IA-LM; first compound 5 µM): 0.692 | relative viability (IA-LM; first compound 15.81 µM): 0.707 | relative viability (IA-LM; first compound 50 µM): 0.685 | relative viability (IA-LM; first compound 158.11 µM): 0.0974 | relative viability (IA-LM; first compound 500 µM): 0.0132
